Measurements as given in US20150133495A1 (ViroCura Therapeutics, Inc., priority 2013, published 2015).
Like-named read-outs stand apart in the source and are kept apart here.

System: HCV replicon (HCV1b sub-genomic, Huh-7 cells)
Assay: HCV replicon RNA replication assay (luciferase reporter)
Assay type: cell-based, Hepatitis C virus (CON-1 genotype b)
Details: Hepatitis C virus
Method: All curve fitting was conducted using non-linear regression analyses from PRISM (version 4.0c, GraphPad Inc.) and the determination of Rmax and EC50 or IC50 parameters were obtained from sigmoidal dose-response phase (variable slope) equation.
The replicon HCV1b is generated based on the wild-type sequence CON-1 genotype b (GenBank accession number AJ238799; Lohmann et al., Science 1999, 285: 110-113) and expressed the sub-genomic fragment HCV NS3-NS4A-NS4B-NS5A-NS5B. The replicon contain a hybrid HCV-IRES 5′UTR, a modified luciferase reporter gene expressed as a luciferase-Ubi-neomycin phosphotransferase gene fusion and an EMCV IRES NS3-NS5B subgenomic fragment with its 3′UTR. To generate cell lines harboring the replicon, Huh-7 cells are electroporated with purified in vitro HCV1b RNA transcripts and stable cell lines are selected in the presence of G418. Stable replicon cell lines are established as described in Science 1999, 285: 110-113. The amount of luciferase expressed by selected cells directly correlates with the level of HCV RNA replication, as measured by real-time PCR.
Stable HCV replicon cells are maintained in Dulbecco's Modified Eagle Medium (DMEM) supplemented with 10% FBS and 0.5 mg/ml G418. During the assay, DMEM supplemented with 10% FBS, containing 0.5% DMSO and lacking G418 are used as assay medium. For the assay, cell stocks are trypsinized and diluted in assay medium to distribute 7,500 cells in 96-well plates. The plates are then incubated at 37° until compound addition. Serial dilutions of the test compound are prepared in 100% DMSO, before dilution in assay medium to a final DMSO concentration of 0.5% to generate a concentration dose response curves. A fixed volume from each well of the compound dilution plate is transferred to a corresponding well of the cell culture plate. The cell culture plate is incubated at 37° C. with 5% CO2 for 72 hours. Following the 72 h incubation period, the medium is aspirated from the 96-well assay plate and a volume of 50_l of lysis buffer 100 mM Tris acetate, 20 mM Mg acetate, 2 mM EGTA, 3.6 mM ATP, 1% Brij 58, 0.7%_-mercaptoethanol containing 45_g/ml luciferine (pH 7.9) is added to each well. The luciferase activity is determined using the luciferase substrate and the luminescence is detected on a MicroBeta JET 1450 LSC & Luminescence Counter (Perkin Elmer) instrument. The luminescence in each well of the culture plate is a measure of the amount of HCV RNA replication in the presence of various concentrations of inhibitor. The % inhibition is calculated for each inhibitor concentration and used to determine the concentration that results in 50% inhibition of HCV replication (EC50).

[1] = Huh-7, 72 h, read-out: EC50 (Range)

Compound | EC50 (Huh-7) | EC50 [1]
Cc1noc(-c2ccc(Cl)cc2)c1C(=O)O/N=C(\N)c1ccc(Cl)cc1 [Compound 60, reference compound] | 500 to 1000 nM | 
Cc1noc(C)c1C(=O)O/N=C(\N)c1cccc(C(F)(F)F)c1 [Compound 61, reference compound] | 1000 to 10000 nM | 
Cc1noc(C)c1C(=O)O/N=C(\N)c1ccc(-c2csnn2)cc1 [Compound 62, reference compound] | 500 to 1000 nM | 
Cc1noc(C)c1C(=O)O/N=C(\N)Cc1ccc(-c2csnn2)cc1 [Compound 63, reference compound] | 500 to 1000 nM | 
Cc1onc(-c2ccccc2Cl)c1C(=O)O/N=C1/CCCCN1 [Compound 64, reference compound] | < 500 nM | 
N/C(=N\OC(=O)c1conc1-c1ccccc1Cl)c1ccc2c(c1)OCO2 [Example 1, (Z)—N′-((3-(2-chlorophenyl)isoxazole-4-carbonyl)oxy)benzo[d][1,3]dioxole-5-carboximidamide] |  | 1000 to 10000 nM
COc1ccc(C/C(N)=N/OC(=O)c2c(C)cccc2C)c(OC)c1 [Example 2, (Z)-2-(2,4-dimethoxyphenyl)-N′-((2,6-dimethylbenzoyl)oxy)acetimidamide] |  | < 500 nM
COc1ccccc1/C(N)=N/OC(=O)c1c(C)cccc1C [Example 3, (Z)—N′-((2,6-dimethylbenzoyl)oxy)-2-methoxybenzimidamide] |  | < 500 nM
N/C(=N\OC(=O)c1c(C(F)(F)F)cccc1C(F)(F)F)c1ccc2c(c1)OCO2 [Example 4, (Z)—N′-((2,6-bis(trifluoromethyl)benzoyl)oxy)benzo[d][1,3]dioxole-5-carboximidamide] |  | 1000 to 10000 nM
COc1ccc(C/C(N)=N/OC(=O)c2ccccc2-c2ccccc2)cc1 [Example 5, (Z)—N′-(([1,1′-biphenyl]-2-carbonyl)oxy)-2-(4-methoxyphenyl)acetimidamide] |  | < 500 nM
CC(C)(C(=O)O/N=C(\N)c1ccc2c(c1)OCO2)c1ccccc1 [Example 6, (Z)—N′-((2-methyl-2-phenylpropanoyl)oxy)benzo[d][1,3]dioxole-5-carboximidamide] |  | 500 to 1000 nM
COc1ccccc1C/C(N)=N/OC(=O)c1c(C)cccc1C [Example 7, (Z)—N′-((2,6-dimethylbenzoyl)oxy)-2-(2-methoxyphenyl)acetimidamide] |  | 500 to 1000 nM
Cc1cccc(C)c1C(=O)O/N=C(\N)CCc1ccc(Br)cc1 [Example 8, (Z)-3-(4-bromophenyl)-N′-((2,6-dimethylbenzoyl)oxy)propanimidamide] |  | < 500 nM
CC(C(=O)O/N=C(\N)c1ccc2c(c1)OCO2)(c1ccccc1)c1ccccc1 [Example 9, (Z)—N′-((2,2-diphenylpropanoyl)oxy)benzo[d][1,3]dioxole-5-carboximidamide] |  | < 500 nM
Cc1onc(-c2ccccc2Cl)c1C(=O)O/N=C(\N)CCc1ccc(Br)cc1 [Example 10, (Z)-3-(4-bromophenyl)-N′-((3-(2-chlorophenyl)-5-methylisoxazole-4-carbonyl)oxy)propanimidamide] |  | < 500 nM
N/C(=N\OC(=O)c1c(-c2ccccc2Cl)noc1C1CC1)c1ccc2c(c1)OCO2 [Example 11, (Z)—N′-((3-(2-chlorophenyl)-5-cyclopropylisoxazole-4-carbonyl)oxy)benzo[d][1,3]dioxole-5-carboximidamide] |  | < 500 nM

Compound | EC50 (Huh-7) | EC50 [1]
CC(C)c1onc(-c2ccccc2Cl)c1C(=O)O/N=C(\N)c1ccc(OCc2ccc(Cl)cc2)cc1 [Example 12, (Z)-4-((4-chlorobenzyl)oxy)-N′-((3-(2-chlorophenyl)-5-isopropylisoxazole-4-carbonyl)oxy)benzimidamide] |  | 500 to 1000 nM
N/C(=N\OC(=O)c1c(-c2ccccc2Cl)noc1Cc1ccccc1)c1ccc2c(c1)OCO2 [Example 13, (Z)—N′-((5-benzyl-3-(2-chlorophenyl)isoxazole-4-carbonyl)oxy)benzo[d][1,3]dioxole-5-carboximidamide] |  | < 500 nM
CN/C(=N\OC(=O)c1c(-c2ccccc2Cl)noc1C)c1ccc2c(c1)OCO2 [Example 14, (Z)—N′-((3-(2-chlorophenyl)-5-methylisoxazole-4-carbonyl)oxy)-N-methylbenzo[d][1,3]dioxole-5-carboximidamide] |  | < 500 nM
COc1ccccc1C/C(N)=N/OC(=O)c1c(-c2ccccc2Cl)noc1C(C)C [Example 15, (Z)—N′-((3-(2-chlorophenyl)-5-isopropylisoxazole-4-carbonyl)oxy)-2-(2-methoxyphenyl)acetimidamide] |  | < 500 nM
COCc1onc(-c2ccccc2Cl)c1C(=O)O/N=C(\N)c1ccc2c(c1)OCO2 [Example 16, (Z)—N′-((3-(2-chlorophenyl)-5-(methoxymethyl)isoxazole-4-carbonyl)oxy)benzo[d][1,3]dioxole-5-carboximidamide] |  | 500 to 1000 nM
N/C(=N\OC(=O)c1c(-c2ccccc2Cl)noc1-c1ccncc1)c1ccc2c(c1)OCO2 [Example 17, (Z)—N′-((3-(2-chlorophenyl)-5-(pyridin-4-yl)isoxazole-4-carbonyl)oxy)benzo[d][1,3]dioxole-5-carboximidamide] |  | 1000 to 10000 nM
N/C(=N\OC(=O)c1c(-c2ccccc2Cl)noc1-c1ccccc1)c1ccc2c(c1)OCO2 [Example 18, (Z)—N′-((3-(2-chlorophenyl)-5-phenylisoxazole-4-carbonyl)oxy)benzo[d][1,3]dioxole-5-carboximidamide] |  | 500 to 1000 nM
Cc1onc(-c2ccccc2Cl)c1C(=O)O/N=C(/c1ccc2c(c1)OCO2)N(C)C [Example 19, (Z)—N′-((3-(2-chlorophenyl)-5-methylisoxazole-4-carbonyl)oxy)-N,N-dimethylbenzo[d][1,3]dioxole-5-carboximidamide] |  | 1000 to 10000 nM
CCCCN/C(=N\OC(=O)c1c(-c2ccccc2Cl)noc1C)c1ccc2c(c1)OCO2 [Example 20, (Z)—N-butyl-N′-((3-(2-chlorophenyl)-5-methylisoxazole-4-carbonyl)oxy)benzo[d][1,3]dioxole-5-carboximidamide] |  | < 500 nM
Cc1onc(-c2ccccc2Cl)c1C(=O)O/N=C(\NCc1cccnc1)c1ccc2c(c1)OCO2 [Example 21, (Z)—N′-((3-(2-chlorophenyl)-5-methylisoxazole-4-carbonyl)oxy)-N-(pyridin-3-ylmethyl)benzo[d][1,3]dioxole-5-carboximidamide] |  | 500 to 1000 nM
COc1ccccc1C/C(N)=N/OC(=O)c1c(-c2ccccc2Cl)noc1C [Example 22] |  | < 500 nM
COc1ccc(C/C(N)=N/OC(=O)c2c(-c3ccccc3Cl)noc2C)cc1 [Example 23, (Z)—N′-((3-(2-chlorophenyl)-5-methylisoxazole-4-carbonyl)oxy)-2-(4-methoxyphenyl)acetimidamide] |  | 500 to 1000 nM
Cc1onc(-c2ccccc2Cl)c1C(=O)O/N=C(\N)Cc1nc2ccccc2s1 [Example 24, (Z)-2-(benzo[d]thiazol-2-yl)-N′-((3-(2-chlorophenyl)-5-methylisoxazole-4-carbonyl)oxy)acetimidamide] |  | 1000 to 10000 nM
Cc1ccc(/C(N)=N/OC(=O)c2cc(C)oc2C)cc1 [Example 25, (Z)—N′-((2,5-dimethylfuran-3-carbonyl)oxy)-4-methylbenzimidamide] |  | 1000 to 10000 nM
Cc1cc(C)c(C(=O)O/N=C(\N)c2ccc3c(c2)OCO3)c(C)c1 [Example 26, (Z)—N′-((2,4,6-rimethylbenzoyl)oxy)benzo[d][1,3]dioxole-5-carboximidamide] |  | < 500 nM
